This data set is described as follows: Solubility in ethanol/propylene glycol/water (85:10:5). The format is physicochemical. The settings on record: R1 in meta position (compound of the invention); ethanol/propylene glycol/water (85:10:5) by volume. The protocol:
The solubilities are measured in ethanol/propylene glycol/water (85:10:5) (proportions are by volume).

With “3-[[Bis[[5-(5-methyl-1H-tetrazol-1-yl)imino]methyl]-2-hydroxyphenyl]methylene] -N,N-dimethylbenzenesulfonamide [Example 31]”, the “Meta Position Solubiity” value was determined as 0.08 mg/mL.
Under `CCCc1cccc(C(c2cc(C=Nn3nnnc3C)ccc2O)c2cc(C=Nn3nnnc3C)ccc2O)c1` (stereo not drawn) [Example 1, 2,2′-[(3-Propylphenyl)methylene]bis[4-[[(5-methyl-1H-tetrazol-1-yl)imino]methyl]]phenol] stands 1.9 mg/mL; under `Cc1nnnn1N=Cc1ccc(O)c(C(c2cccc(N(C)C)c2)c2cc(C=Nn3nnnc3C)ccc2O)c1` (stereo not drawn) [Example 2, 2,2′-[[(3-Dimethylamino)phenyl]methylene]bis[4-[[(5-methyl-1H-tetrazol-1-yl)imino]methyl]]phenol], 2.10 mg/mL.
For the compound `CCOc1cccc(C(c2cc(C=Nn3nnnc3C)ccc2O)c2cc(C=Nn3nnnc3C)ccc2O)c1` (stereo not drawn) [Example 6, 2,2′-[(3-Ethoxyphenyl)methylene]bis[4-[[(5-methyl-1H-tetrazol-1-yl)imino]methyl]]phenol], the “Meta Position Solubiity” value stood at 1.85 mg/mL.
Under `CCN(CC)c1cccc(C(c2cc(C=Nn3nnnc3C)ccc2O)c2cc(C=Nn3nnnc3C)ccc2O)c1` (stereo not drawn) [Example 20, 2,2′-[[(3-Diethylamino)phenyl]methylene]bis[4-[[(5-methyl-1H-tetrazol-1-yl)imino]methyl]]phenol] stands 1.45 mg/mL.
The same measure for `Cc1nnnn1N=Cc1ccc(O)c(C(c2cccc([N+](=O)[O-])c2)c2cc(C=Nn3nnnc3C)ccc2O)c1` (stereo not drawn) [Example 27, 2,2′-[(3-Nitrophenyl)methylene]bis[4-[[(5-methyl-1H-tetrazol-1-yl)imino]methyl]]phenol]: 0.98 mg/mL.

For the origin of these results see patent publication US8119672B2, “Compounds, compositions and methods for treating or preventing pneumovirus infection and associated diseases” (Microdose Therapeutx, Inc., priority 2002, dated 2012).
